Data on 74 compounds can be found in PubChem BioAssay AID179 (DTP/NCI, 2004).

Usually EC50 stands for the midpoint of the concentration-response curve. One may read the IC50 as the concentration that inhibits the measured activity by half. The low end stands for higher potency, the high end for lower potency.

Where “and” joins values, the source holds several entries; their conditions need not be identical. Identical values can stand only once. Calls of active or inactive are those of the source.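 The calls were made as follows: active = compounds giving half or more protection of infected cells from virus-caused growth loss, again on retest; inactive = the rest.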

The test concerns CEM cells HIV-1 protection, formazan growth assay. Briefly: NCI AIDS Antiviral Assay. The settings on record: for IC50: measured here: growth of uninfected CEM cells. In outline: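 Human CEM cells, uninfected and HIV-1-infected, exposed to five drug concentrations; growth measured by soluble formazan assay and scored as percent protection from infection, with protecting compounds retested.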

Regarding `Cc1nc(OCc2ccccc2)c2ncn(CCO)c2n1`, the EC50 is above 200 µM and the IC50 was above 200 µM.
`Cc1ccc(C(=O)O/N=C2/CCCCC2CN(C)C)cc1` (stereo not given): the outcome was inactive.
As for `CN1C(=O)N(C)C2(O)c3ccccc3C(=O)C12O` (stereo not given), the EC50 was above 1000 µM and the half-maximal inhibitory concentration (IC50) was above 1000 µM.
Take `O=CC(O)C(O)C(O)C1CNC(=S)O1` (stereo not given): the EC50 is above 200 µM and the half-inhibitory concentration (IC50) is above 200 µM.
Take `c1cnc2c(c1)CCc1cc3cccnc3nc1-2`: the EC50 was above 200 µM and the IC50 came out at 186 µM.
Take `Cc1cc(=S)c2cc3c(cc2[nH]1)OCO3`: the EC50 was above 200 µM and the IC50 was 79.4 µM.
In the case of `COc1cccc2c(NCCCN(C)C)c3c([N+](=O)[O-])ccc(OC)c3nc12`, the EC50 was above 2 µM and the IC50 was 0.257 µM.
Turning to `N#Cc1cc2c(n(C3OC(CO)C(O)C(O)C3O)c1=S)CCCCCC2` (stereo not given), the EC50 was above 200 µM and the IC50 is above 200 µM.
On to `CC(C)(C)OC(=O)NCCCCCCC(=O)Cc1ccccc1`, for which the EC50 was above 200 µM and the IC50 turned out to be 117 µM.
On the same counts, the results for `CNC(=O)OCCN1c2ccccc2Sc2ccccc21` are above 200 µM and 77.6 µM.
On the same counts, the results for `O=C1NC(N2CCCCC2)=N/C1=C\c1ccc(Cl)cc1` are above 200 µM and 97.7 µM.
Turning to `Oc1ccc2ccccc2c1C1=NNC(c2ccc(Cl)cc2)C1` (stereo not given), the EC50 is above 200 µM and the IC50 was 40.7 µM.
`O=S(=O)(c1ccccc1)C1(CCC2OCCO2)C=CC2(CC1)OCCO2` (stereo not given): the EC50 is above 200 µM and the IC50 is above 200 µM.
On to `CCn1cc(C(=O)O)c(=O)c2cc(F)c(N3CCNCC3)nc21`, for which the result was inactive.
In the case of `CCC(=O)NC(C(=O)NC(C(=O)NC(CC(C)C)C(O)CC(=O)NC(C)C(=O)NC(CC(C)C)C(O)CC(=O)O)C(C)C)C(C)C` (stereo not given), the EC50 is above 7.59 µM and the IC50 is above 7.59 µM.
Take `CCC1(CC)C(=O)[N-]C(=O)[N-]C1=O.[Au+].[Au+].c1ccc([PH+](c2ccccc2)c2ccccc2)cc1.c1ccc([PH+](c2ccccc2)c2ccccc2)cc1`: the EC50 was above 6.61 µM and the IC50 was above 6.61 µM.
Regarding `N#Cc1c(N)nc([Se]CC(=O)c2ccc(Cl)cc2)c(C#N)c1-c1ccco1`, the EC50 was above 200 µM and the IC50 turned out to be 141 µM.
On the same counts, the results for `O=C1NC(Cc2ccc(O)cc2)C(=O)N2CCCC12` (stereo not given) are above 955 µM and above 955 µM.
For the compound `CC(=O)c1c(N=[N+]=[N-])c2cccc3c2n(c1=O)CCC3`, the EC50 is above 200 µM and the IC50 came to 30.9 µM.
Turning to `O=C(NCCCNCCCCNCCCNC(=O)C(F)(F)F)C(F)(F)F`, the EC50 is above 200 µM and the IC50 came out at 14.8 µM.
Turning to `COc1ccccc1NC(=S)N/C=C(\C#N)C(=O)c1ccc2ccccc2c1`, the EC50 is above 200 µM and the IC50 was 37.2 µM.
Consider `COc1ccc(N2C(=O)C3C=CC(n4[nH]c(=O)n(Cc5ccccc5)c4=O)CC3C2=O)cc1` (stereo not given), for which the EC50 is above 407 µM and the IC50 worked out at 209 µM.
Take `CNC(=O)N(CCCC(NC(C)=O)C(=O)NCc1ccccc1)Cc1ccccc1` (stereo not given): the EC50 was above 603 µM and the IC50 is above 603 µM.
On to `CC(C)OP(=O)(OC(C)C)/C(C#N)=C/c1c[nH]c2ccccc12`, for which the EC50 is above 200 µM and the IC50 is above 200 µM.
As for `CC(C)=CCSC1CC2C(CC1(C)O)C2(C)C` (stereo not given), the EC50 was above 200 µM; the IC50 was 110 µM and 112 µM.
For `Cc1ccc(NC(=O)SCCC(=O)O)cc1NC(=O)SCCC(=O)O`, the result was inactive.
For `COc1cc(N(C)C)ccc1/C=C\c1ccnc2ccccc12`, the EC50 was above 200 µM and the IC50 is 13.5 µM.
For the compound `COc1cc([C@H]2CC(=O)C[C@H](c3cc(OC)c(OC)c(OC)c3)C23C(=O)c2ccccc2C3=O)cc(OC)c1OC`, the EC50 was above 200 µM and the IC50 was above 200 µM.
Take `COc1cc(-c2oc(C=Nc3ccccc3)c([N+](=O)[O-])c2-c2ccc(O)c(OC)c2)ccc1O`: the EC50 was above 200 µM and the IC50 turned out to be 7.59 µM.
On to `O=c1cc(-c2ccccc2)oc2ccc(-c3ccc4oc(-c5ccccc5)cc(=O)c4c3)cc12`, for which the EC50 is above 200 µM and the IC50 was determined as 27.5 µM.
Take `O=P(O)(O)CN1CCNCCN(CP(=O)(O)O)CCN(CP(=O)(O)O)CCNCC1`: the EC50 is above 100 µM and the IC50 was 64.6 µM.
On the same counts, the results for `CN(C)CCCN1CCC2(CCSCC2)C1` are above 186 µM and 87.1 µM.
Turning to `COC1OC(COCc2ccc(Cl)cc2)C(OCc2ccc(Cl)cc2)C1O` (stereo not given), the result was inactive.
In the case of `CC(=O)OCC1OC(n2c(C)cc(-c3cccc4ccccc34)c(C#N)c2=S)C(OC(C)=O)C(OC(C)=O)C1OC(C)=O` (stereo not given), the EC50 was above 200 µM and the IC50 amounted to 21.4 µM.
Consider `[N-]=[N+]=NC1(Cc2ccccc2)C(=O)c2cccc3c2N(CCC3)C1=O` (stereo not given), for which the result was inactive.
With `COc1ccc(Cn2nc(OCc3ccccc3)c3cc([N+](=O)[O-])ccc32)cc1`, the EC50 was above 200 µM and the half-inhibitory concentration (IC50) amounted to 25.1 µM.
As to `O=C(Nc1c(Cl)cc([N+](=O)[O-])cc1Cl)C(=O)C(C1OC(=O)c2ccccc21)[N+](=O)[O-]` (stereo not given), the EC50 is above 57.5 µM and the IC50 is above 57.5 µM.
With `CC1CCCN2C(=O)CN(c3ccccc3)CC(=O)N12` (stereo not given), the EC50 was above 200 µM and the IC50 was above 200 µM.
With `CN(C)C1CCC2(CC1)OCCO2`, the outcome was inactive.
For the compound `COc1cc(Cc2nnc(Nc3ccccc3)[nH]c2=O)cc(OC)c1OC`, the EC50 was above 257 µM and the IC50 was above 257 µM.
For `CCN(CCN1C(=O)C2CCCCC2C1=O)c1ccc(N=O)c(C)c1` (stereo not given), the EC50 is above 200 µM and the IC50 stood at 1.78 µM.
As for `CC(=O)N1CCN(C23OC4(N5CCN(C(C)=O)CC5)C5C6CC(C7C6C4C72)C53)CC1` (stereo not given), the EC50 is above 200 µM and the IC50 was above 200 µM.
As to `CCOC(=O)C(NC(=O)c1ccccc1)(Nc1cc(C)on1)C(F)(F)F` (stereo not given), the EC50 was above 200 µM and the half-maximal inhibitory concentration (IC50) is above 200 µM.
For the compound `O/N=C1/CCCC/C1=C/C=C/c1ccccc1`, the EC50 is above 16.6 µM and the IC50 is above 16.6 µM.
As to `CCOC(=O)c1ccc(NC(=O)Nc2ccc(Cl)cn2)cc1`, the EC50 is above 200 µM and the IC50 was above 200 µM.
Consider `O=c1[nH]cnc2c1ncn2CCCCO`, for which the result was inactive.
Take `CC1(Br)OC(=O)C(C)(Br)OC1=O` (stereo not given): the EC50 was above 200 µM and the IC50 is above 200 µM.
As for `CN1CC=C(C#CC(C)(C)O)CC1`, the EC50 is above 200 µM and the IC50 is above 200 µM.
On to `O=P1(Oc2ccccc2)C(c2ccccc2)C(c2ccccc2)=NN1c1ccccc1` (stereo not given), for which the EC50 is above 12.3 µM and the IC50 is above 12.3 µM.
Regarding `O=c1[nH]c(=O)n(C2CC(O)C(CO)O2)cc1C#Cc1ccc(C(F)(F)F)cc1` (stereo not given), the EC50 was above 631 µM and the IC50 worked out at 91.2 µM.
`COc1cc(-c2ccccc2)cn2c1nc1ccccc12`: the EC50 is above 200 µM and the IC50 was 11.5 µM.
For the compound `Cc1ccc(Cc2nc(=S)[nH][nH]2)cc1`, the EC50 is above 200 µM and the half-maximal inhibitory concentration (IC50) stood at 120 µM.
In the case of `COc1ccc(-c2cc(-c3ccccc3)c(C#N)c(=O)[nH]2)cc1`, the EC50 is above 61.7 µM and the IC50 is above 61.7 µM.
As for `COC(=O)[C@@H]1[C@@H]2NC(=S)N[C@@]1(C)Oc1ccccc12`, the result was inactive.
Regarding `C/C(=C\c1ccc([N+](=O)[O-])cc1)C(=O)O`, the EC50 was above 174 µM and the IC50 is above 174 µM.
As to `CC(C)NC(=O)NCCc1c[nH]c2ccccc12`, the EC50 is above 200 µM and the IC50 was above 200 µM.
As for `O=C1c2ccccc2OC(Cl)(c2ccccc2)C1Cl` (stereo not given), the EC50 is above 200 µM and the 50% inhibitory concentration (IC50) amounted to 31.6 µM.
For the compound `CCCCNC(=S)/N=C/c1c(O)c2ccccc2[nH]c1=O`, the EC50 is above 200 µM and the half-maximal inhibitory concentration (IC50) is above 200 µM.
`N#Cc1n[nH]n(-c2ccccc2)c1=O`: the EC50 is above 200 µM and the IC50 was above 200 µM.
For the compound `CS(=O)(=O)OCC1CCCCCCCCCCC12SCCCS2` (stereo not given), the EC50 was above 200 µM and the IC50 was above 200 µM.
On to `CC(=O)Nc1c(C(=O)O)[nH]c(=O)[nH]c1=O`, for which the EC50 is above 200 µM and the IC50 is above 200 µM.
Consider `N#CCc1c(F)c(F)c(F)c(F)c1F`, for which the EC50 was above 200 µM and the IC50 was above 200 µM.
On to `CCOC(=O)C1=C(C)NC(=O)NC1c1ccc(OC)cc1OC` (stereo not given), for which the EC50 was above 30.9 µM and the IC50 was above 30.9 µM.
Take `COc1ccc2c(c1)C(C(=O)O)CC(=O)N2C` (stereo not given): the EC50 was above 200 µM and the IC50 was above 200 µM.
Regarding `COc1nc(NC2OC(COC(C)=O)C(OC(C)=O)C(OC(C)=O)C2OC(C)=O)c(N=CC=Nc2c(NC3OC(COC(C)=O)C(OC(C)=O)C(OC(C)=O)C3OC(C)=O)nc(OC)[nH]c2=O)c(=O)[nH]1` (stereo not given), the result was inactive.
As for `O=C(c1cc(Cl)ccc1Cl)N1CCN(C(=O)c2cc(Cl)ccc2Cl)CC1`, the EC50 is above 200 µM and the IC50 was above 200 µM.
For the compound `NNC(=O)CC(=O)N(C(=O)/C=C/c1ccccc1)c1ccc(Cl)cc1`, the EC50 is above 200 µM and the IC50 was above 200 µM.
For the compound `NCCN.NCCN.O=C([O-])[O-].O=C([O-])[O-].[Co+3]`, the result was inactive.
Turning to `COc1cc2ccc1OCc1cccc(n1)COc1ccc(cc1OC)C=NCCNCCN=C2`, the EC50 was 132 µM and the IC50 was above 200 µM.
`C=CCc1ccccc1OP(=O)(Oc1ccc(C(C)(C)C)cc1)Oc1ccc(C(C)(C)C)cc1`: the result was inactive.
With `CC(=O)OCC(CC[CH2][Sn]([Cl])([Cl])[c]1ccccc1)OC(C)=O` (stereo not given), the outcome was inactive.
Turning to `C=CC1ON(C)CCc2cc(OC)c(OC)cc21` (stereo not given), the EC50 is 162 µM and the IC50 was above 200 µM.
Consider `COc1cc2c(cc1OC)C(Cc1cc(OCc3ccccc3)c(OC)cc1N)N(C)CC2` (stereo not given), for which the outcome was inactive.
Take `CC(C(=O)c1ccc(Cl)cc1)/C(=N/NC(=O)NN)C(=O)Nc1cccc(C(F)(F)F)c1` (stereo not given): the EC50 is above 79.4 µM and the IC50 is above 79.4 µM.
